Values quoted from earlier work as cited in article PMC4780677 (Annual reports in medicinal chemistry, 2012).

Test system: mGlu5 receptor
Settings: cell lines; mGlu5 receptor ago-PAM vs pure PAM

SMILES | intrinsic agonist activity
O=C(NC1CCC1)c1ccc(C#Cc2cccc(F)c2)nc1 [VU0360172] | maximal intrinsic agonist activity
O=C(c1ccc(C#Cc2cccc(F)c2)nc1)N1CCC(O)CC1 [VU0361747] | devoid of intrinsic agonist activity
